Source: patent US20150159141A1, “ISOLATED HUMAN LIVER TUMOR CELL LINE AND METHOD OF AGENT SCREENING” (Industrial Technology Research Institute, priority 2013, published 2015)

Columns and labels:
[1] = tested on: human liver tumor cell line ITRI-H28; test: Cell viability of ITRI-H28 cells after Sorafenib treatment (Alarmablue assay); assay type: cell-based; conditions: 48-hour treating period, P value 0.02, read-out: half maximal inhibitory concentration (IC50)
Experimental: In the experiment, a plurality of plates are prepared with 1×10^4 ITRI-H28 cells seeded respectively thereon and divided into a plurality of groups, and the groups are treated with different concentrations of Sorafenib, such as 30, 15, 7.5, 3.75, 1.88, and 0.94 uM. Next, after a 48-hour treating period, a cell viability of each of the groups is measured by an Alarmablue measurement assay, and results are shown in FIG. 3.
A calculation is done according to the results of FIG. 3, a half maximal inhibitory concentration (IC50) of Sorafenib in the ITRI-H28 cell line are about 2.79±0.41, and a statistical P value is 0.02. According to the above results, the human liver tumor cell line ITRI-H28 has a susceptibility to the HCV-related HCC drug, which is able to use in a HCV-related HCC drug screening. Furthermore, according to the above experiments, the human liver tumor cell line ITRI-H28 has cancer cell properties, which can be used widely in a liver drug screening.

liver cancer = conditions: phase III of human clinical trials; cited from earlier work

IC50 [1]: ~2790 nM
SMILES: CNC(=O)c1cc(Oc2ccc(NC(=O)Nc3ccc(Cl)c(C(F)(F)F)c3)cc2)ccn1 [Sorafenib]
extension of patient survival time (liver cancer): three
